The text below walks through data of ChEMBL document CHEMBL4330081, “Rational design of 5-((1H-imidazol-1-yl)methyl)quinolin-8-ol derivatives as novel bromodomain-containing protein 4 inhibitors” (Eur J Med Chem, 2019).

Some results are limits rather than exact numbers.

A word on the IC50: it is the concentration that inhibits the measured activity by half. A word on the inhibition: it is the relative decrease from the control value, in per cent. The ΔTm is the change in melting temperature against a reference sample. What is called half-life is the time in which the quantity being followed falls by half. The low end stands for fast loss, the high end for slow loss.

Data set [1] deals with T1, Bromodomain-containing protein 4 (Homo sapiens, UniProt O60885). In words: Inhibition of BRD4 BD1 (unknown origin) using biotin labelled NeC: SGRG-K(Ac)-GG-K(Ac)-GLG-K(Ac)-GGA-K(Ac)-RHRKVGG-K as substrate preincubated for 15 mins followed by substrate addition measured after 30 mins by alpha screen assay.
In data set [2] the target is T1, Bromodomain-containing protein 4. Briefly: Inhibition of BRD4 BD1 (unknown origin) at 10 uM using biotin labelled NeC: SGRG-K(Ac)-GG-K(Ac)-GLG-K(Ac)-GGA-K(Ac)-RHRKVGG-K as substrate preincubated for 15 mins followed by substrate addition measured after 30 mins by alpha screen assay relative to control. Background: In Alpha technology, singlet oxygen from a donor bead excites a nearby acceptor bead.

The target is the same in data set [3]. Briefly: Inhibition of BRD4 BD1 (unknown origin) at 50 uM using biotin labelled NeC: SGRG-K(Ac)-GG-K(Ac)-GLG-K(Ac)-GGA-K(Ac)-RHRKVGG-K as substrate preincubated for 15 mins followed by substrate addition measured after 30 mins by alpha screen assay relative to control.
Data set [4] shares this target.
Description: Stabilization of BRD4 BD1 (unknown origin) assessed as change in melting temperature at protein to test compound molar ratio of 1:40 by SYPRO Orange dye based fluorescence analysis
For data set [5], the system named is MV4-11. In words: Antiproliferative activity against human MV4-11 cells after 72 hrs by CellTiter Glo luminescent assay. Type of data set: functional, cell-based. The note with it: MV4-11, 72 h. On the technique in general: ATP-based viability assays read luminescence as a measure of living cells.
For data set [6], the target named is T1, Bromodomain-containing protein 4. In words: Inhibition of recombinant full length human N-terminal His6-tagged BRD4 (2 to 1362 residues) expressed in baculovirus infected insect cells using histone H4 peptide as substrate by alpha screen assay.
In data set [7] the test system is MDA-MB-231. Briefly: Antiproliferative activity against human MDA-MB-231 cells after 72 hrs by CellTiter Glo luminescent assay. The note with it: MDA-MB-231, 72 h. Type of data set: functional, cell-based.
Data set [8] has as its system MM1.S. In words: Antiproliferative activity against human MM1S cells after 72 hrs by CellTiter Glo luminescent assay. Type of data set: functional, cell-based.
The nature of data set [9]: Half life in human hepatocytes at 1 uM up to 120 mins by LC/MS analysis. Type of data set: ADME, cell-based, Hepatocyte.
For data set [10], the target named is hERG (KCNH2) (Homo sapiens, UniProt Q12809). Briefly: in vitro. The conditions noted are these: CHO cells expressing human ERG.
Chain of hERG (KCNH2) (Q12809 whole entry): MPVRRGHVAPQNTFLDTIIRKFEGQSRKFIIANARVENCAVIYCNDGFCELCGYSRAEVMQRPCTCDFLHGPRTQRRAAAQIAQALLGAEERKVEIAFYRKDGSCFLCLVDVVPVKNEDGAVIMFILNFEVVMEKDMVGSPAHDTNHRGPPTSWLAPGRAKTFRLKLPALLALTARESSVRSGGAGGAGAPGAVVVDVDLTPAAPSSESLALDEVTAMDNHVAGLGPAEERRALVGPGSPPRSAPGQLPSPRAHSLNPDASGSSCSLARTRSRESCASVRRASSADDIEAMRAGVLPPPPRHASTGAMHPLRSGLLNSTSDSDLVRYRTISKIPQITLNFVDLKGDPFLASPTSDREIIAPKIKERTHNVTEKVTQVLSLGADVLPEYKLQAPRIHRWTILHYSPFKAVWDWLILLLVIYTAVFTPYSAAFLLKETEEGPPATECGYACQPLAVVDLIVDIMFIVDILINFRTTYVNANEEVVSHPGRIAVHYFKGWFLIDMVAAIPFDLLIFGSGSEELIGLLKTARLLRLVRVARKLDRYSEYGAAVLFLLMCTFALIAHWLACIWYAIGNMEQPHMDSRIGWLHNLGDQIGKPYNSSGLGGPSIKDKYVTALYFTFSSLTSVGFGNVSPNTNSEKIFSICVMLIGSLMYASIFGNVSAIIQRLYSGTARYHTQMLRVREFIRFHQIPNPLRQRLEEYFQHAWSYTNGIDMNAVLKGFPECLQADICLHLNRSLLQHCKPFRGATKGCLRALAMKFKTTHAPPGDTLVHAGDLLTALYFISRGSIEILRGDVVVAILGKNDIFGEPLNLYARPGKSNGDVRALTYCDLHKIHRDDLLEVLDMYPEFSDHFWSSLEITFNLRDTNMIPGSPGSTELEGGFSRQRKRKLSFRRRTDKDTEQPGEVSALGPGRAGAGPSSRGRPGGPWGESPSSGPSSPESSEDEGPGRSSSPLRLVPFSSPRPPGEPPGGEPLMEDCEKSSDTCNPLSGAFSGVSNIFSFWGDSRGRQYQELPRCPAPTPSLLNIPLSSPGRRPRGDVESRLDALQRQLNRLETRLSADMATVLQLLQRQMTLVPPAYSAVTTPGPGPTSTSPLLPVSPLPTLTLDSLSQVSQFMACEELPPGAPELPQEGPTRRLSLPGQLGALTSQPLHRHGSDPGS
Description: Inhibition of human ERG expressed in CHO cells at 40 uM at -80 mV holding potential after 2.5 mins by Qpatch clamp assay relative to control

With `O=C(CCc1ccccc1)N/N=C/c1ccc(O)c2ncccc12`, in data set [1], 4300 nM corresponded to half-maximal inhibition (IC50). Besides, in data set [2], the inhibition came to 86%. On to `Cc1ccc2c(Cn3ccnc3)ccc(O)c2n1`, for which the inhibition in data set [2] amounted to 41%. For the compound `C=CC[n+]1cccc2cccc(O)c21`, in data set [3], the inhibition was -0%. For `Nc1ccc2c(Cn3ccnc3)ccc(O)c2n1`, the ΔTm in data set [4] came to 3.8 °C. In addition, the IC50 in [1] stood at 292 nM; in [5], 20.4 µM. Regarding `CC1=NN(c2ccc3cccc(O)c3n2)C(=O)C1`, inhibition in [1] was half-maximal at 1000 nM (IC50). The compound further displayed an inhibition in [2] of 99%.

`O=[N+]([O-])c1cccc(S(=O)(=O)Nc2ccc(O)c3ncccc23)c1`: in data set [2], the inhibition is -0%.

As to `CCCOCc1ccc(O)c2ncccc12`, the midpoint of inhibition in [1], the IC50, lay at 2100 nM. Moreover, the inhibition in [2] came to 96%. Regarding `CCOc1c(Br)cc(Br)cc1/C=C/c1ccc2cccc(O)c2n1`, the inhibition in data set [3] was -0%. `N=C(N)NCCC[C@H](NC(=O)CCC(=O)OC[N+]1(c2cc(=O)c3cccc(-c4ccccc4)c3o2)CCOCC1)C(=O)NCC(=O)N[C@@H](CC(=O)O)C(=O)N[C@@H](CO)C(=O)[O-]` [SF-1126]: in data set [6], the IC50 stood at 5300 nM. With `O=[N+]([O-])c1cc([N+](=O)[O-])c2cccnc2c1O`, the inhibition in [2] turned out to be 27%. `COC(=O)C(O)(c1cc(C)c2cccnc2c1O)C(F)(F)F` (centres undefined): the inhibition in data set [3] was found to be 97%. Take `COc1nnc2ccc(N3CCC(c4ccc(OCCN5CCN(C)C(=O)C5C)cc4)CC3)nn12` (centres undefined): the IC50 in data set [6] is 1.7 nM. For the compound `Oc1cccc2ccc(/C=C/c3cccc(OCc4ccccc4Cl)c3)nc12`, in [3], the inhibition is -0%. `Oc1ccc(CSc2nc3ccccc3s2)c2cccnc12`: the inhibition in [2] was determined as 18%. `Oc1ccc(CNc2ccc(Cl)cn2)c2cccnc12` had an inhibition in [2] of 12%. Regarding `CCOC(=O)C1CCCN(Cc2ccc(O)c3ncccc23)C1` (centres undefined), the IC50 in [1] was 738 nM. The compound also yielded an inhibition in [3] of 97.8%. In data set [2], `Cc1cc2ncn(Cc3ccc(O)c4ncccc34)c2cc1C` gave an inhibition of 23%. For `Oc1cccc2ccc(/C=C/c3ccc(-c4cccc(Br)c4)o3)nc12`, the inhibition in [3] was below 7.8%. `O=C1CN(Cc2ccc(O)c3ncccc23)Cc2ncccc2N1`: the thermal shift (ΔTm) in data set [4] stood at 4.3 °C. Further, the IC50 is 92 nM in [1] and 9.6 µM in [5]. In the case of `Oc1ccc(CN2CCCCCC2)c2cccnc12`, the IC50 in [1] was 670 nM. This compound gave an inhibition in [3] of 46 to 99%.

In turn, `COc1ccc(C)cc1/N=N/c1ccc(O)c2nc(C=O)ccc12` came in with an inhibition in data set [2] of 20%. As for `Oc1ccc(CNc2ccc(C(F)(F)F)cc2)c2cccnc12`, in data set [1], half-maximal inhibition (IC50) was put at 4800 nM. For the compound `O=c1oc2ccc(Cl)cc2n1Cc1ccc(O)c2ncccc12`, in [2], the inhibition is 16%. On to `CC(C)(C)OC(=O)Oc1ccc(Cn2ccnc2)c2cccnc12`, for which the IC50 in data set [7] was 31.5 µM; in data set [1] it was 176 nM; in data set [5], 11.5 µM; in data set [8] it was 1800 nM. Further, the ΔTm in data set [4] was 4.5 °C. For `O=C(Oc1ccc(Cn2ccnc2)c2cccnc12)c1ccccc1`, the IC50 was 12.3 µM in data set [7], 67 nM in [1], 9 µM in data set [5] and 2900 nM in data set [8]. In addition, the ΔTm in [4] was determined as 3.8 °C. This compound gave a half-life at 1 µM in [9] of 1.4 min. In data set [3], `O=[N+]([O-])c1cccc(-c2ccc(/C=C/c3ccc4cccc(O)c4n3)o2)c1` showed an inhibition of -0%.

In data set [2], `Nc1cc(S(=O)(=O)O)c2cccnc2c1O` had an inhibition of -0%. Turning to `Oc1ccc(Cn2nnc3ccccc32)c2cccnc12`, the IC50 worked out at 1.3 µM in data set [7], 155 nM in data set [1], 1 µM in [5] and 300 nM in data set [8]. In [4], the ΔTm came to 4.3 °C. In data set [10], this compound had an inhibition at 2.5 min, 40 µM of 24%. In [3], `Oc1c(Br)cc(/C=C/c2ccc3cccc(O)c3n2)cc1Br` gave an inhibition of -0%. On to `Oc1ccc(COn2nnc3ccccc32)c2cccnc12`, for which the ΔTm in data set [4] was 4.4 °C. In addition, the IC50 stood at 82 nM in data set [1] and 12.7 µM in data set [5]. In [3], `O=S(=O)(O)c1ccc2cccc(O)c2n1` registered an inhibition of 47.4%.

With `Nc1ccc(-c2nc3ccc(-c4nc5ccc(N)cc5[nH]4)cc3[nH]2)cc1`, in data set [2], the inhibition is -0%. The same measure, in the same setting: the result for `Cc1cc(C)c2ccc(C=O)nc2c1O` reads -0%. The compound `O=C(C[n+]1cccc2cccc(O)c21)c1ccccc1` yielded an inhibition in [3] of -0%.

In the case of `COc1ccc(C)cc1/N=N/c1ccc(O)c2nc(/C=N/O)ccc12`, the inhibition in data set [2] stood at 24%. Turning to `Cc1cc(C)c2ccc(/C=N/O)nc2c1O`, the inhibition in [2] was found to be 6%. `Oc1ccc(CNc2ccccc2Br)c2cccnc12` displayed an inhibition in data set [3] of 46%. With `CN(C)c1ccc2cccc(O)c2n1`, the inhibition in [2] is -0%. As to `Oc1ccc(Cn2cncn2)c2cccnc12`, the IC50 in [7] turned out to be 6.7 µM; in data set [1], 95 nM; in [5], 5.2 µM; in [8] it was 4300 nM. Moreover, the shift in melting temperature (ΔTm) in data set [4] stood at 3.2 °C. The corresponding values for `CC(=O)Oc1ccc(Cn2cnc(F)c2)c2cccnc12` are 2.2 µM, 70 nM, 2.9 µM, 1100 nM and 4.7 °C.

`O=S(=O)(O)c1ccc(/N=N/c2ccc(O)c3ncccc23)cc1` registered an inhibition in data set [2] of -0%. Consider `O=[N+]([O-])c1ccc(O)c2ncccc12` [NITROXOLINE], for which, in data set [4], the ΔTm turned out to be 3.9 °C. Besides, the IC50 in data set [5] was found to be 4.9 µM. Take `CC(=O)Oc1ccc(Cn2ccnc2)c2cccnc12`: the ΔTm in data set [4] worked out at 4.3 °C. The IC50 in data set [1] was 61 nM; in [5], 28.5 µM. As to `Cc1ccc2c(Cn3cnc(F)c3)ccc(OC(=O)OC(C)(C)C)c2n1`, the IC50 in [7] amounted to 2.7 µM; in data set [1], 46 nM; in data set [5] it was 2.9 µM; in data set [8] it was 1100 nM. Besides, in data set [4], the ΔTm is 4.6 °C. This compound also displayed a half-life at 1 µM in data set [9] of 1.6 min. For `Oc1c(Br)cc(Br)cc1/C=C/c1ccc2cccc(O)c2n1`, the inhibition in [3] is -0%. In [2], `Cc1cc(C)n(-c2ccc3c(Cl)cc(Cl)c(O)c3n2)n1` registered an inhibition of -0%. On to `Oc1ccc(CNc2cccc(C(F)(F)F)c2)c2cccnc12`, for which the IC50 in data set [1] was 4800 nM. Besides, in data set [2], the inhibition turned out to be 84%. `Cc1ccc(C(=O)C[n+]2cccc3cccc(O)c32)cc1` had an inhibition in data set [3] of -0%. `Cc1cc(C)c2ccc(NN)nc2c1O` had an IC50 in data set [1] of 18000 nM. Besides, in data set [3], the inhibition turned out to be 88%. The compound `Oc1cccc2ccc(N3CCCCC3)nc12` had an inhibition in data set [2] of -0%. As for `Oc1ccc(CN2CCn3c(nnc3C(F)(F)F)C2)c2cccnc12`, in data set [4], the ΔTm amounted to 4.9 °C. In addition, the IC50 was 68 nM in data set [1] and 22.4 µM in [5].

`O=C(C[n+]1cccc2cccc(O)c21)c1ccc(F)cc1`: the inhibition in data set [3] is -0%. In [2], `CC(C)(C)OC(=O)Oc1ccc(Cn2c(-c3cscn3)nc3ccccc32)c2cccnc12` returned an inhibition of 11%. In [3], `Cc1cc(O)c2cccc(O)c2n1` gave an inhibition of -0%. Turning to `Oc1ccc(Cn2cccn2)c2cccnc12`, the IC50 in data set [7] was 3.6 µM; in data set [1] it was 76 nM; in data set [5], 1.6 µM; in data set [8], 700 nM. In addition, the ΔTm in [4] amounted to 4.5 °C. The inhibition at 2.5 min, 40 µM in data set [10] worked out at 8.3%. Turning to `O=C(C[n+]1cccc2cccc(O)c21)c1ccc(Cl)cc1`, the inhibition in data set [3] was -0%. Compound `O=C(N/N=C/c1ccc(O)c2ncccc12)c1cccc(Br)c1` had an IC50 in data set [1] of 5200 nM. Further, the inhibition in [2] amounted to 73%. For the compound `Oc1ccc(Cn2c(-c3cscn3)nc3ccccc32)c2cccnc12`, the IC50 in data set [7] worked out at 3.7 µM; in [1] it was 73 nM; in data set [5] it was 1.5 µM; in [8], 2100 nM. Also, in data set [4], the ΔTm is 4.7 °C. For `O=C(Cc1ccccc1)N/N=C/c1ccc(O)c2ncccc12`, in data set [1], half-maximal inhibition (IC50) required 4700 nM. Besides, the inhibition in [2] was found to be 82%. As to `Cc1sc2c(c1C)C(c1ccccc1)=N[C@@H](CC(=O)OC(C)(C)C)c1nnc(C)n1-2`, the IC50 in data set [6] is 33 nM.

On to `Cc1nnn(C)c1-c1cnc2c3ccc(C(C)(C)O)cc3n(C(c3ccccc3)C3CCOCC3)c2c1` (centres undefined), for which the IC50 in [6] was below 5 nM.

For `O=S(=O)(Nc1ccc(O)c2ncccc12)c1ccc(Cl)cc1`, in [2], the inhibition was -0%. In the case of `Oc1ccc(CSc2ccccc2)c2cccnc12`, in [1], 3000 nM corresponded to half-maximal inhibition (IC50). The compound further registered an inhibition in [2] of 86%. The compound `Cn1c(/N=N/c2ccc(O)c3ncccc23)nc2ccccc21` gave an IC50 in data set [1] of 370 nM. This compound gave an inhibition in data set [2] of 100%. For the compound `CC(C)(CCl)C(=O)Oc1ccc(Cn2ccnc2)c2cccnc12`, the IC50 in [7] was found to be 12.4 µM; in data set [1] it was 54 nM; in data set [5] it was 8.9 µM; in data set [8], 3600 nM. Moreover, the ΔTm in data set [4] was 2.4 °C.

`O=C1c2ccccc2C(=O)N1CCCOc1ccc(Cn2ccnc2)c2cccnc12`: the inhibition in data set [2] came to 21%.

Regarding `O=C1c2ccccc2C(=O)N1Cc1ccc(O)c2ncccc12`, the inhibition in [2] was 30%.
